Several values for one entry are separate records, joined by “and”; a condition that tells them apart may be missing. Identical values can stand only once.
Assays:
[1] = system: Alzheimer's disease; experiment: clinical trial: ADAS-Cog (70 point scale); format: in vivo, human
Description: Neuropsychological Assessment: The Alzheimer's Disease Assessment Scale, Cognitive Part (ADAS-Cog) (see Rosen et al., Am. J. Psychiatr., 141:1356-1364 (1984)) was used as an objective neuropsychological measure. It consists of a battery of neuropsychological tests for different cognitive functions. The battery comes to a single score with a maximum of 70 points and is administered in about 45 minutes to patients. A 117 point extended scale version of this test was also used (see Table 5). […] The ADAS includes both cognitive (ADAS-Cog) and non-cognitive (ADAS-Noncog) subscales and the tests components of memory, language, and behavior. […] We further assessed the cognitive functioning of these patients with the extended scale ADAS-Cog test.

[2] = system: Alzheimer's disease; experiment: clinical trial: Global Deterioration Scale; format: in vivo, human; design: Global Deterioration Scale, 3 months / Global Deterioration Scale, 6 months / Global Deterioration Scale, 3 months, Average / Global Deterioration Scale, 6 months, Average: scale not given here
Description: Neuropsychological Assessment: The Clinical Impression of Change (CIBIC-Plus) and the Global Deterioration Scale (GDS) were recorded at 3 and 6 months. The Clinical Impression of Change (CIBIC-Plus) consists of the holistic impression by the clinician of whether the patient has shown any change since baseline as rated on a seven point sale (marked, moderate, mild improvement, no change, or marked, moderate, mild decline). The Global Deterioration Scale rates clinically identifiable stages of dementia. […] The GDS test provides a description of the key features of AD progression. […] The GDS is calculated as the average of scores related to the performance in the following areas of attention and concentration, recent memory, past memory, orientation, and functioning and self care.

[3] = system: ApoE; experiment: ApoE in medium of rat primary type 1 astrocyte cultures exposed to probucol, immunoblot; format: cell-based
Description: Apo E concentration was assessed in the cell culture medium by immunoblot analysis using methods previously described (Poirier et al., Neuroscience, 55:81-90 (1993)). In the absence of probucol (EtOH control) very little ApoE is detected in the media (i.e., the extracellular compartment). […] We also observed that the amount of ApoE detected in the media at 48 hours was less than the amount of ApoE in the media after only 24 hours of incubation. This time-dependent response in ApoE levels may reflect the continued division and growth of cells.

[4] = system: ApoE-knockout mice; experiment: ApoE knockout mouse transient focal ischemia stroke model; format: in vivo; settings: 5 mg i.p. daily for ten days, if ApoE induction is necessary for neuroprotection
Description: To extend these animal studies, the ApoE knockout mouse may be exploited to assess the role of ApoE in probucol-mediated neuroprotection for stroke.
This protocol is carried out as similarly described for the rat model above, with some modifications. […] On the tenth day, animals are subjected to a transient focal ischemia by intraluminal occlusion of the middle cerebral artery. Infarct volume, neurological outcome, and cerebral flow will be monitored.

[5] = system: plasma apolipoproteins; settings: cited from earlier work
[6] = system: cortical infarct; experiment: Wistar rat middle cerebral artery occlusion stroke model; format: in vivo; settings: rats dosed i.p. daily for ten days, 2 hour middle cerebral artery occlusion, 22 hours reperfusion
Description: In particular, the Wistar rat model may be used with modifications. Briefly, rats are dosed (i.p.) daily with probucol or a saline negative control for ten days. On the tenth day, animals are then subjected to a 2 hour reversible, middle cerebral artery occlusion. Laser-Doppler flowmetry is used to monitor the ischemic period and early reperfusion. […] We predict that the cortical infarct volumes (indicative of neuronal damage) will be less in animals treated with probucol as compared to untreated animals.

[7] = system: β-amyloid protein (1-40); experiment: clinical trial: CSF total β-amyloid (1-40); format: in vivo, human
Description: (§1) Biological Markers: Additional biochemical markers included phenotyping of the patients ApoE and determining relative concentrations of tau protein, P-amyloid protein (1-42 and 1-40); and relative extent of lipid peroxidation.
Tables 11 and 12 summarize the changes in total β-amyloid protein (1-40 and 1-42) at one month, as a percentage of the baseline values.

[8] = system: Tau protein; experiment: clinical trial: Tau protein in the CSF; format: in vivo, human
Description: as §1

[9] = average of patients, baseline average 28.9
[10] = individual AD patient, higher score indicates poorer performance
[11] = average of patients, baseline average 4.7

SMILES: CC(C)(Sc1cc(C(C)(C)C)c(O)c(C(C)(C)C)c1)Sc1cc(C(C)(C)C)c(O)c(C(C)(C)C)c1 [probucol]
- ADAS-Cog (70 point scale) score, 3 months, Average [1, 9]: 29.5
- ADAS-Cog (70 point scale) score, 6 months, Average [1, 9]: 30.13
- ADAS-Cog (70 point scale) score, 3 months [1, 10]: 37 and 41 and 22 and 18 and 27 and 29 and 34 and 28
- ADAS-Cog (70 point scale) score, 6 months [1, 10]: 40 (2×) and 44 and 16 and 17 and 25 and 36 and 23
- patient symptoms on the Global Deterioration Scale ([2]; at three and six months): relative stabilization
- Global Deterioration Scale, 3 months, Average [2, 11]: 4.8
- Global Deterioration Scale, 6 months, Average [2, 11]: 5.3
- Global Deterioration Scale, 3 months ([2]; individual AD patient): 5 (2×) and 7 and 5.5 and 4.5 and 1.5 and 8 and 3.25 and 3.5
- Global Deterioration Scale, 6 months ([2]; individual AD patient): 6.5 and 7 and 5 and 6 and 1 and 8 and 3.5 and 5.5
- extracellular amount of ApoE ([3]; 1 nM, 24 hours post dosing, versus EtOH control): dramatically increased
- extracellular ApoE with increasing concentrations ([3]; 100 nM and 10 uM versus 1 nM): Further increases
- amount of ApoE in the media at 48 hours versus 24 hours ([3]; 48 hours compared with 24 hours of incubation): less
- benefit in ApoE-knockout animals [4]: little or no benefit
- total plasma apoB, apoA-1, apoA-II, apoC-II and apoC-III ([5]; human, in vivo): lower
- circulating ApoE levels ([5]; probucol-treated hypercholesterolemic patients): increased
- effectiveness in subjects with apoE2/2 genotype ([5]; subjects with a very high physiological concentration of ApoE): totally uneffective
- cortical infarct volumes compared to untreated animals [6]: less
- [β amyloid 1-40] in the CSF, % change ([7]; 1 month as a percentage of the baseline value, individual AD patient): 345% and 108% and 100% and 241% and 105% and 107% and 979% and 2157%
- [β amyloid 1-40] in the CSF, 1 month ([7]; individual AD patient, average of triplicate assays): 3.44 and 3.95 and 4.96 and 7.55 and 3.26 and 3.51 and 5.35 and 2.16
- levels of β-amyloid in the CSF ([7]; one month of treatment, Alzheimer's patients, β-amyloid 1-40 and 1-42): overall increase
- Tau concentration in the CSF, % change ([8]; 1 month relative to baseline, individual AD patient): 93% and 109% and 97% and 92% and 102% and 113% and 94% and 131% and 99%
- Tau concentration in the CSF, 1 month ([8]; individual AD patient): 188 and 1099 and 251 and 1070 and 458 and 1120 and 394 and 916 and 620
- effect on Tau levels in the CSF, as a group ([8]; one month relative to baseline): no effect
